Entries after “also recorded” stand apart in the source; their conditions may differ. Read-outs that look alike come from different tables or passages of the source.
Experiments:
[1] = target: T1, COX-1 (Ovis aries, UniProt P05979); assay: COX fluorescent inhibitor screening assay, COX-1; type: biochemical
T1 construct: purchased Cayman Chemical
T1 sequence (P05979 25-600): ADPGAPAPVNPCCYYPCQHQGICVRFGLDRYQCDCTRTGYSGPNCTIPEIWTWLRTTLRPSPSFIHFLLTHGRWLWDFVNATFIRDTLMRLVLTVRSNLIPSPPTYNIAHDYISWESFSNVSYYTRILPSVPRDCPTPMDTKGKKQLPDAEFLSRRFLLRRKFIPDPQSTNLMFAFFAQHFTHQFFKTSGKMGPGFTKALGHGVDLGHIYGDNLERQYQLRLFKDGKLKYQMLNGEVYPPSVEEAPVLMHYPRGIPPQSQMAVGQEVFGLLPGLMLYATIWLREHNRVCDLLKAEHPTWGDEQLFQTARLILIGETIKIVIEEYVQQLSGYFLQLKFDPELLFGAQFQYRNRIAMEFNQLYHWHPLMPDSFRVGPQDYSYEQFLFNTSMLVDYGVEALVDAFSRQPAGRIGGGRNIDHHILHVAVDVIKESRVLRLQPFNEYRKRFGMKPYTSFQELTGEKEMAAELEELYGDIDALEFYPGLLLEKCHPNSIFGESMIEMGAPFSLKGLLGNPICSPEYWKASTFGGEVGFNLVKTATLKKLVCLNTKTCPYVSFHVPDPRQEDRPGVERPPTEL
Protocol: (§1) The assay was performed using the COX fluorescent inhibitor screening assay kit (Cayman chemical, MI, USA), with some modifications. […] After 5 min of incubation at room temperature, 5 µL of 10-acetyl-3,7-dihydroxyphenoxazine (ADHP) and 20 µL of a solution containing arachidonic acid (0.5 mM) and KOH (2.5 mM) were added to each well.

[2] = target: T2, COX-2 (Homo sapiens, UniProt P35354); assay: COX fluorescent inhibitor screening assay, COX-2; type: biochemical
T2 construct: purchased Cayman Chemical
T2 sequence (P35354 18-604): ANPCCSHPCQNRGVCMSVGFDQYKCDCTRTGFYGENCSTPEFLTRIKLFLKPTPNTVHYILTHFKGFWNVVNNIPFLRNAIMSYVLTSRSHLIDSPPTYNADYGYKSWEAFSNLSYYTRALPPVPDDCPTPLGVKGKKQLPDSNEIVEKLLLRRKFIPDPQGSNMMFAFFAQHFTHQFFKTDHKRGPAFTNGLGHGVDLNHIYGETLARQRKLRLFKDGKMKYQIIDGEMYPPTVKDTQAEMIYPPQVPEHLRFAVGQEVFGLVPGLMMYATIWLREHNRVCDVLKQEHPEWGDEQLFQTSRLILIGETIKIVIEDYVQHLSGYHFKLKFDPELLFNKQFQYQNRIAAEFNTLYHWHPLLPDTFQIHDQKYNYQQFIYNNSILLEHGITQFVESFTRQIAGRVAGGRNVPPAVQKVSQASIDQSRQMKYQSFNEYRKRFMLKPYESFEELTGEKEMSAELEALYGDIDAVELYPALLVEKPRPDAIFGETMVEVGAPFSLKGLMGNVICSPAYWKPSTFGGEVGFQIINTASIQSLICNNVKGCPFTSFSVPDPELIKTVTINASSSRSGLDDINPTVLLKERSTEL
Protocol: as §1

[3] = target: T3, 20S proteasome isolated from erythrocytes (Homo sapiens, UniProt P28074); conditions: reported in literature; cited from earlier work
[4] = tested on: RAW 264.7 cells; assay: MTT cell viability, RAW 264.7 macrophages; type: cell-based, murine; conditions: for cytotoxic effect on RAW 264.7 viability: up to 100 µM, 24 h
Protocol: (§2) Adenocarcinoma gastric cells (AGS; Sigma-Aldrich, St. Louis, MO, USA), murine-macrophage cell line (RAW 264.7; American Type Culture Collection, LGC Standards S.L.U., Barcelona, Spain), and human foetal lung fibroblasts (MRC-5; ECACC, Porton Down Salisbury, UK) were cultured as a monolayer at 37 °C in a humidified incubator with 5% carbon dioxide. AGS and RAW 264.7 cells were grown in DMEM, supplemented with 1% streptomycin/penicillin and 10% FBS (Gibco®). MRC-5 cells were grown in MEM, supplemented with 1% streptomycin/penicillin and 10% FBS.
(§3) Cell viability was evaluated by the MTT reduction assay. Cells were cultured in 96-well plates (15,000 cells/well for AGS, 25,000 cells/well for RAW and 20,000 cells/well for MRC-5) and allowed to attach for 24 h. After incubation with compounds for 24 h, MTT (0.5 mg/mL final concentration) was added to each well and the plate was incubated for 75 min at 37 °C. Formazan crystals were dissolved by the addition of a DMSO: isopropanol mixture (3:1) and then quantified spectrophotometrically at 570 nm using a microplate reader (Multiskan Thermo Fisher Scientific Oy, Vantaa, Finland).

[5] = MTT cell viability, MRC-5 cells; type: cell-based; conditions: human, MRC-5 cells (human foetal lung fibroblasts)
Protocol: as §2, §3

[6] = tested on: AGS cells; assay: MTT cell viability, AGS cells; type: cell-based; conditions: 24 h; for toxicity towards AGS cells: 100 µM
Protocol: as §2, §3

[7] = target: T4, LOX from glycine max (soybean) (Glycine max, UniProt P08170); assay: Lipoxygenase glycine max (soybean) assay; type: biochemical; conditions: for LOX inhibition at single concentration: 100 µM; for IC50: dose-response assay, read-out: IC50 for LOX inhibition
T4 construct: purchased Sigma-Aldrich
T4 sequence (P08170 1-839): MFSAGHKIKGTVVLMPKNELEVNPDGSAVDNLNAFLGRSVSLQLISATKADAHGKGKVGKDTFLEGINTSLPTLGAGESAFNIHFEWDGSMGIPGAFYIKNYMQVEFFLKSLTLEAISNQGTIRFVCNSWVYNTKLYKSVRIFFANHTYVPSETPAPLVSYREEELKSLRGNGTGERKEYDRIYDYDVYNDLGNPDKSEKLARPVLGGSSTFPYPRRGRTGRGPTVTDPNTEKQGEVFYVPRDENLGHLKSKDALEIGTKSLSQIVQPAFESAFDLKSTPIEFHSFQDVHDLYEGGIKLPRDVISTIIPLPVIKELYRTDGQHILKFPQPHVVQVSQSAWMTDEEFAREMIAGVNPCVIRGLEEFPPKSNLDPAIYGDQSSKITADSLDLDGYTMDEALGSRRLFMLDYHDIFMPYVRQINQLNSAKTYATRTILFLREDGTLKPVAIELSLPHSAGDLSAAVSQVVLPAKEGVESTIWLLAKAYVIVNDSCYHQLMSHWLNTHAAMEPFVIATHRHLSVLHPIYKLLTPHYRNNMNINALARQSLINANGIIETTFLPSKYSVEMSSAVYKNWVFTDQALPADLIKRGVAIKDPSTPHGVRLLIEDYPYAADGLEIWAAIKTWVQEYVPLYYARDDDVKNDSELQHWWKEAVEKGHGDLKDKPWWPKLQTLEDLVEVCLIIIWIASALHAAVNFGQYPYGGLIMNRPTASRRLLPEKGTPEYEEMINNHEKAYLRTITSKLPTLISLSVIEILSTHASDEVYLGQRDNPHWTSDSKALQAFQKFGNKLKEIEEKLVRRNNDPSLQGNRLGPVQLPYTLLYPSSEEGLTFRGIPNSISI
Protocol: The inhibitory effect on LOX was assessed in 96-well plates, using a modified version of a previously reported procedure from Pereira et al.. […] After 5 min pre-incubation at room temperature, the reaction was started by addition of linoleic acid substrate (20 µL of a 4.18 mM solution in ethanol). The reaction was monitored at 234 nm using a multiplate reader (Multiskan Thermo Fisher Scientific Oy, Vantaa, Finland), for 3 min.

[8] = tested on: LPS-induced •NO production in RAW 264.7 cells; assay: LPS-induced NO production in RAW 264.7 (Griess); type: cell-based, murine; conditions: Mus musculus, RAW264.7; RAW 264.7, LPS 1 µg/mL; read-out: IC50 (LPS-dependent •NO production)
Protocol: RAW 264.7 cells were cultured in 96-well plates (35,000 cells/well) for 24 h and then pre-treated with different concentrations of each compound. After 2 h, LPS was added (final concentration 1 µg/mL) and the plates were incubated at 37 °C, in a humidified atmosphere of 5% CO2. After 22 h, 75 µL of cell supernatant was transferred to a 96-well plate and mixed with 75 µL of Griess reagent (1% sulfanilamide and 0.1% naphthylethylenediamine dihydrochloride in 2% H3PO4). The plate was incubated at room temperature for 10 min in the dark and then the absorbance was read at 540 nm using a microplate reader (Multiskan Thermo Fisher Scientific Oy, Vantaa, Finland).

[9] = target: T2, COX-2; set-up: method as in PMID 30987203; conditions: 25 µM; low selectivity towards COX-2; cited from earlier work
[10] = target: T4, LOX from glycine max (soybean); set-up: method as in PMID 30987203; conditions: 100 µM; cited from earlier work
[11] = tested on: RAW 264.7 cells; set-up: method as in PMID 30987203; conditions: up to 100 µM, 24 h, MTT; cited from earlier work
[12] = target: T1, COX-1; set-up: method as in PMID 30987203; conditions: 25 µM; cited from earlier work
[13] = tested on: LPS-induced •NO production in RAW 264.7 cells; conditions: preliminary study; cited from earlier work
[14] = Solubility in enzymatic assay buffer; type: physicochemical
[15] = target: T3, 20S proteasome isolated from erythrocytes; assay: 20S proteasome inhibition (chymotrypsin-like activity); type: biochemical; set-up: purified 20S proteasome isolated from erythrocytes (Enzo Life Sciences); purchased Enzo Life Sciences; host or cells: erythrocytes; conditions: 100 µM
Protocol: Proteasome activity was measured by adapting a method described by Silva et al.. The substrate used to study chymotrypsin-like enzyme activity was Suc-Leu-Leu-Val-Tyr-AMC and the enzyme used was purified 20S proteasome isolated from erythrocytes (Enzo Life Sciences). […] The plate was incubated at 37 °C in the dark for 2 h. […] Lactacystin was used as positive control.

Row | Structure (SMILES) | IC50 [7] | cytotoxic effect on RAW 264.7 viability [4] | toxicity towards AGS cells [6] | LOX inhibition at single concentration [7] | further results
1 | COc1ccc2cc([C@H](C)C(=O)O)ccc2c1 [Naproxen, reference compound] |  |  |  |  | inhibition at 25 µM [1]: 42.3%; inhibition at 25 µM [2]: 61.5%; proteasome inhibition [3]: not be an inhibitor of proteasome
2 | COc1ccc2cc(C(C)C(=O)NC(CCCCN)C(=O)NC(=Cc3ccccc3)C(=O)O)ccc2c1 [Compound 5, Npx-L-Lys-Z-ΔPhe-OH] |  | small cytotoxic effect | slightly cytotoxic | not able to inhibit LOX activity | viability at 24 h, 100 µM [5]: ~79%
3 | CC=C(NC(=O)C(Cc1c[nH]c2ccccc12)NC(=O)C(C)c1ccc2cc(OC)ccc2c1)C(=O)O [Compound 8, Npx-L-Trp-Z-ΔAbu-OH] | 48.9 µM | did not show any statistically significant cytotoxic effects | not toxic | significantly inhibit the LOX enzyme to a similar level to naproxen | IC50 [8]: 84.4 µM
4 | COC(=O)C(=Cc1ccccc1)NC(=O)C(Cc1ccc(O)cc1)NC(=O)C(C)c1ccc2cc(OC)ccc2c1 [Compound 7, Npx-L-Tyr-Z-ΔPhe-OMe] |  |  |  |  | solubility in COX assay medium ([14]; Tris-HCl pH 8.0): insoluble in the assay medium; solubility in LOX assay buffer solution ([14]; phosphate buffer pH 9.0): insolubility in the assay buffer solution; IC50 ([4]; Mus musculus, RAW264.7, 24 h): 23.1 µM; viability at 24 h, 100 µM [5]: ~87%; IC50 ([6]; Homo sapiens, AGS): 10.9 µM; 20S proteasome inhibition [15]: not able to inhibit the 20S proteasome
5 | COc1ccc2cc(C(C)C(=O)NC(Cc3c[nH]c4ccccc34)C(=O)NC(=Cc3ccccc3)C(=O)O)ccc2c1 [Compound 3, Npx-L-Trp-Z-ΔPhe-OH] | 55.9 µM | did not show any statistically significant cytotoxic effects | slightly cytotoxic | significantly inhibit the LOX enzyme to a similar level to naproxen | IC50 [8]: 64.7 µM; remaining activity at 100 µM ([15]; read-out: 20S proteasome enzyme activity remaining): 52%

Second part, led by results:

Row | IC50 [7] | Structure (SMILES) | cytotoxic effect on RAW 264.7 viability [4] | toxicity towards AGS cells [6] | LOX inhibition at single concentration [7] | further results
6 | 67.4 µM | COC(=O)C(=Cc1ccccc1)NC(=O)C(CC(=O)O)NC(=O)C(C)c1ccc2cc(OC)ccc2c1 [Compound 2, Npx-L-Asp-Z-ΔPhe-OMe] |  | slightly cytotoxic |  | COX inhibition level (COX-2) [9]: modest levels of COX inhibition; LOX inhibition at single concentration [10]: significantly inhibit the LOX enzyme to a similar level to naproxen; also recorded: high levels of lipoxygenase (LOX) inhibition; cytotoxic effect on RAW 264.7 viability [11]: did not show any statistically significant cytotoxic effects; COX inhibition level (COX-1) [12]: modest levels of COX inhibition; inhibition of LPS-induced production of •NO [13]: modest ability to inhibit
7 | 60.3 µM | COc1ccc2cc(C(C)C(=O)NC(CCSC)C(=O)NC(=Cc3ccccc3)C(=O)O)ccc2c1 [Compound 6, Npx-L-Met-Z-ΔPhe-OH] | did not show any statistically significant cytotoxic effects | not toxic | significantly inhibit the LOX enzyme to a similar level to naproxen | 
8 | 55.7 µM | COc1ccc2cc(C(C)C(=O)NC(C)C(=O)NC(=Cc3ccccc3)C(=O)O)ccc2c1 [Compound 4, Npx-L-Ala-Z-ΔPhe-OH] | did not show any statistically significant cytotoxic effects | not toxic | significantly inhibit the LOX enzyme to a similar level to naproxen | inhibition at 25 µM [1]: 9%; inhibition at 25 µM [2]: 66%

Source: paper PMC7076388 (Pharmaceutics, 2020)
